Holding throughout (assay): Kinase panel profiling at 1 µmol/L (MSA or IMAP), percentage inhibition
Type in all cases: biochemical

For assay [1], the target named is panel of 255 wild-type kinases (Homo sapiens, UniProt P08631). The following applies: kinase HCK; 1 µmol/L single concentration; read-out: %-inhibition at 1 µmol/L, HCK.
Assay [2] concerns the target panel of 255 wild-type kinases (Homo sapiens, UniProt P22607). To be noted: read-out: %-inhibition at 1 µmol/L, FGFR3.
For assay [3], the target named is T1, panel of 255 wild-type kinases (Homo sapiens, UniProt P42680).
T1 sequence (P42680 1-631): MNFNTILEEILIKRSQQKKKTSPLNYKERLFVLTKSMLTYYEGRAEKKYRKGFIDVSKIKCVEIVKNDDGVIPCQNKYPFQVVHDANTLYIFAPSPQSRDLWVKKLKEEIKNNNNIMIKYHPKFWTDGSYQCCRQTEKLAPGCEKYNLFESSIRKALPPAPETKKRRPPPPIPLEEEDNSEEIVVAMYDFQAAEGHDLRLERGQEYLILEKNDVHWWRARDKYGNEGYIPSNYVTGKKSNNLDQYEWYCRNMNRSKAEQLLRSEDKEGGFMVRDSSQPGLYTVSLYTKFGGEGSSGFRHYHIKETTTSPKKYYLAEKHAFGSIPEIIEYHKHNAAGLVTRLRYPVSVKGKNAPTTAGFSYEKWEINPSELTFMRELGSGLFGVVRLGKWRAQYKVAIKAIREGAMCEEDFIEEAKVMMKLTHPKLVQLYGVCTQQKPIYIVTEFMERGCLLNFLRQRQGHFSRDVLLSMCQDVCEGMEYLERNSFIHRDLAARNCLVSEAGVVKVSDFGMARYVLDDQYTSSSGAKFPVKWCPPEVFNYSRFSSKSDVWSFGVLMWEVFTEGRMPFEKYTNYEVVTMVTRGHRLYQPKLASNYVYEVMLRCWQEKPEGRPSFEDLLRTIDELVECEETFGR
The following applies: kinase TEC; 1 µmol/L single concentration; read-out: %-inhibition at 1 µmol/L, TEC.

Assay [4] concerns the target T2, panel of 255 wild-type kinases (Homo sapiens, UniProt Q96BR1).
T2 sequence (Q96BR1 1-496): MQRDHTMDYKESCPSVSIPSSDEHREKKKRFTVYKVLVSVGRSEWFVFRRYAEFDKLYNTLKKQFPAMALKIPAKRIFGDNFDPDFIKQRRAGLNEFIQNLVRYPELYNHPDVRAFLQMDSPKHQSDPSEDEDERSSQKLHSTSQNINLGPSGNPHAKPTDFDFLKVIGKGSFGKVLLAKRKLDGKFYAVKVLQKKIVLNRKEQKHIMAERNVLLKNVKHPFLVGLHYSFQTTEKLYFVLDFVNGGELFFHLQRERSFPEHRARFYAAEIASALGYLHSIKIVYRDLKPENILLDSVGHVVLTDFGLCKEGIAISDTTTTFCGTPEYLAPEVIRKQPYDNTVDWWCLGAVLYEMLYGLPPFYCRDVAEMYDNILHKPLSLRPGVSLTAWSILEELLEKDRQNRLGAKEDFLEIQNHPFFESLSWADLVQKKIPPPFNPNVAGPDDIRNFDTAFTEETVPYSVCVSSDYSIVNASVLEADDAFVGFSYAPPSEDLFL
The following applies: kinase SGK3; 1 µmol/L single concentration; read-out: %-inhibition at 1 µmol/L, SGK3.

The target of assay [5] is panel of 255 wild-type kinases (Homo sapiens, UniProt P68400). To be noted: kinase CK2α1/β; 1 µmol/L single concentration; read-out: %-inhibition at 1 µmol/L, CK2α1/β.
For assay [6], the target named is panel of 255 wild-type kinases (Homo sapiens, UniProt Q9H2G2). To be noted: kinase SLK; 1 µmol/L single concentration; read-out: %-inhibition at 1 µmol/L, SLK.
For assay [7], the target named is T3, panel of 255 wild-type kinases (Homo sapiens, UniProt Q16832).
T3 sequence (Q16832 22-855): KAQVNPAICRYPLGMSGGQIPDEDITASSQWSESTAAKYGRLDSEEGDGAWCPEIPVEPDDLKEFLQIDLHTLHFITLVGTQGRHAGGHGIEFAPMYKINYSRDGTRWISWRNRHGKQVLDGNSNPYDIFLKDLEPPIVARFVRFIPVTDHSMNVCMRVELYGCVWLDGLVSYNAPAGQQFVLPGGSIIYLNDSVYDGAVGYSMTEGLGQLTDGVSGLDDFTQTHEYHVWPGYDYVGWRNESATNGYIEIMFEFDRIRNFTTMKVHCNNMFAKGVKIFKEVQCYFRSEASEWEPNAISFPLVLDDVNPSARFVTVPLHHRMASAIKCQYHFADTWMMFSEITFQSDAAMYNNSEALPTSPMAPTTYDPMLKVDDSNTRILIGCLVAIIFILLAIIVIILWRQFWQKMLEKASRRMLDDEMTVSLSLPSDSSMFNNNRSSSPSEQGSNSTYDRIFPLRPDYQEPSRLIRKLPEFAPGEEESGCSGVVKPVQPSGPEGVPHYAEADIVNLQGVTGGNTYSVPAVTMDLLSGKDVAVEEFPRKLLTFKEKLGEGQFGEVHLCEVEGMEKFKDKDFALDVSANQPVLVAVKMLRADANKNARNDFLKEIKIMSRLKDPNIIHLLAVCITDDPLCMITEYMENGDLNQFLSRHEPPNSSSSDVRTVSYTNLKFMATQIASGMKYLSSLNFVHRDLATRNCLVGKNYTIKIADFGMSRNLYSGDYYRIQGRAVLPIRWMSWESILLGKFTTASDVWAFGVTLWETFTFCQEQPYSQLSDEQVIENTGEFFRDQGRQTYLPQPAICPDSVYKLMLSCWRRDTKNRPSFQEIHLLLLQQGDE
To be noted: kinase DDR2; 1 µmol/L single concentration; read-out: %-inhibition at 1 µmol/L, DDR2.

Assay [8] addresses panel of 255 wild-type kinases (Homo sapiens, UniProt Q5VT25). To be noted: MRCKα; 1 µmol/L single concentration; read-out: %-inhibition, MRCKα.
Assay [9] addresses panel of 255 wild-type kinases (Homo sapiens, UniProt Q96GD4). To be noted: read-out: %-inhibition AurB.
Assay [10] addresses panel of 255 wild-type kinases (Homo sapiens, UniProt Q9UQM7). To be noted: CaMK2α kinase assay; 1 µmol/L single concentration; read-out: %-inhibition CaMK2α.
[11] abbreviates: kinase FGFR3, 1 µmol/L single concentration.
Where [12] appears, read: AurB kinase assay, 1 µmol/L single concentration.

Like-named read-outs stand apart in the source and are kept apart here.

Regarding `COc1ccc(CN2C3CC2CN(c2ccc(-c4cc(OCC(C)(C)O)cn5ncc(C#N)c45)cn2)C3)cn1` [selpercatinib], the inhibition at 1 µM in [1] was 58%; in [2] (setting [11]), 95%; in assay [3], 37%; in assay [4], -0.72%; in assay [5], -1.82%; in [6], 14%. The inhibition at 1 µM in assay [7] is 73%; in assay [8] it was -2.65%; in assay [9] (setting [12]) it was 79%; in [10], 1.43%.
For the compound `CCN1C(=O)N(c2c(F)c(OC)cc(OC)c2F)Cc2cnc3[nH]c(CN4CCOCC4)cc3c21` [pemigatinib], the inhibition at 1 µM in assay [1] was 31%; in assay [2] (setting [11]), 100%; in assay [3], -1.55%; in [4], -7%; in assay [5], -2.8%; in [6] it was 0.681%. Moreover, the inhibition at 1 µM is 5% in assay [7], -3.23% in [8], 2.32% in assay [9] (setting [12]) and 5% in assay [10].
For `CN1CCN(c2ccc(C(=O)Nc3n[nH]c4ccc(Cc5cc(F)cc(F)c5)cc34)c(NC3CCOCC3)c2)CC1` [entrectinib], the inhibition at 1 µM in assay [1] was 91%; in assay [2] (setting [11]) it was 90%; in assay [3], 97%; in assay [4], 0.413%; in assay [5] it was 1.84%; in assay [6] it was 63%. The inhibition at 1 µM in assay [7] is 100%; in assay [8], -3.42%; in assay [9] (setting [12]) it was 48%; in assay [10], 12%.
Turning to `CO[C@]1(C(=O)N[C@@H](C)c2ccc(-n3cc(F)cn3)nc2)CC[C@H](c2nc(C)cc(Nc3cc(C)[nH]n3)n2)CC1` [pralsetinib], the inhibition at 1 µM in [1] was 82%; in [2] (setting [11]), 96%; in [3], 95%; in [4], -0.536%; in assay [5] it was -2.52%; in [6], 17%. Also, the inhibition at 1 µM in assay [7] is 102%; in assay [8], 1.82%; in assay [9] (setting [12]), 38%; in [10], -1.59%.
Take `C[C@H]1Oc2cc(cnc2N)-c2c(nn(C)c2C#N)CN(C)C(=O)c2ccc(F)cc21` [lorlatinib]: the inhibition at 1 µM in assay [1] is 42%; in [2] (setting [11]), -0.405%; in assay [3] it was 3%; in assay [4], 7.56%; in assay [5], -2%; in assay [6], 90%. Further, the inhibition at 1 µM is 21% in [7], -6% in assay [8], 5% in assay [9] (setting [12]) and 3.76% in assay [10].
Turning to `CCn1c(=O)c(-c2cc(NC(=O)Nc3ccccc3)c(F)cc2Br)cc2cnc(NC)cc21` [ripretinib], the inhibition at 1 µM in [1] is 60%; in assay [2] (setting [11]), 52%; in assay [3], 5.66%; in [4], -9%; in assay [5] it was 1%; in [6], 18%. The inhibition at 1 µM in assay [7] is 98%; in [8], -1.14%; in [9] (setting [12]) it was 5%; in assay [10], -5.68%.
Turning to `Cc1nc(NC(=O)N2CCC[C@H]2C(N)=O)sc1-c1ccnc(C(C)(C)C(F)(F)F)c1` [alpelisib], the inhibition at 1 µM is 4.56% in assay [1]; 3.39% in assay [2] (setting [11]); -0.644% in assay [3]; 1.47% in assay [4]; -1.52% in assay [5]; 8% in assay [6]. The inhibition at 1 µM in [7] was 5.45%; in [8], -2%; in [9] (setting [12]) it was -4.26%; in assay [10] it was -1.21%.
`FC(F)(F)c1ccc(CNc2ccc(Cc3c[nH]c4ncc(Cl)cc34)cn2)cn1` [pexidartinib]: the inhibition at 1 µM in [1] was 3%; in [2] (setting [11]), 68%; in [3], -0.0585%; in assay [4], -0.803%; in assay [5], 0.256%; in [6], 11%. The inhibition at 1 µM in assay [7] was 90%; in [8] it was 0.771%; in assay [9] (setting [12]), 60%; in assay [10], -4%.
As to `CCc1nc(C(N)=O)c(Nc2ccc(N3CCC(N4CCN(C)CC4)CC3)c(OC)c2)nc1NC1CCOCC1` [gilteritinib], the inhibition at 1 µM was 87% in assay [1]; 76% in assay [2] (setting [11]); 44% in assay [3]; -18% in [4]; 15% in assay [5]; 99% in [6]. Further, the inhibition at 1 µM in assay [7] came out at 99%; in assay [8], 12%; in assay [9], 64%; in assay [10], 36%.
Regarding `O=C(Nc1cnn2ccc(N3CCC[C@@H]3c3cc(F)ccc3F)nc12)N1CC[C@H](O)C1` [larotrectinib], the inhibition at 1 µM in [1] is -3%; in assay [2], 1.36%; in assay [3] it was 1.59%; in [4] it was -4.61%; in assay [5] it was -2.37%; in [6], 5.58%. Moreover, the inhibition at 1 µM was 26% in assay [7], 0.38% in assay [8], -4.57% in [9] (setting [12]) and 2.74% in [10].

Source of the values: paper PMC9516332 (Frontiers in Oncology, 2022).
